Laboratory results taken from patent US6613718B2, “Aryl ether derivatives and processes for their preparation and herbicidal and desiccant compositions containing them” (Ishihara Sangyo Kaisha, Ltd., priority 2001, dated 2003).

Tests used:
Format in all cases: in vivo
Details in all cases: 14 days after application
[1] = test system: green foxtail (Setaria viridis, SETVI); assay: Pre-emerge greenhouse herbicide activity screening, phytotoxicity rating
From the text: (§1) A standard greenhouse herbicide activity screening system was used to evaluate the herbicidal efficacy and crop safety of these test compounds. Seven broadleaf weed species including redroot pigweed (Amaranthus retroflexus, AMARE), velvetleaf (Abutilon theophrasti, ABUTH), sicklepod (Cassia obtusifolia, CASOB), ivyleaf morningglory (Ipomoea hederacea, IPOHE), lambsquarters (Chenopodium album, CHEAL), common ragweed (Ambrosia artemisiifolia L., AMBEL), and cocklebur (Xanthium strumarium, XANST) were used as test species. Four grass weed species including green foxtail (Setaria viridis, SETVI), barnyardgrass (Echinochloa crus-galli, ECHCG), johnsongrass (Sorghum halepense, SORHA), and large crabgrass (Digitaria sanguinalis, DIGSA) were also used. In addition, three crop species, field corn (Zea mays L., var. Dekalb 535, CORN), soybean (Glycine max L., var. Pella 86, SOY), and upland rice (Oryza sp., var.Tebonnet, RICE) were included.
(§2) All plants were grown in 10 cm square plastic pots which were filled with a sandy loam soil mix. For pre-emerge tests, seeds were planted one day prior to application of the test compounds. For post-emerge tests, seeds were planted 8-21 days prior to the test to allow emergence and good foliage development prior to application of the test substances. At the time of the post-emerge application, plants of all species were usually at the 2-3 leaf stage of development.
(§3) All test compounds were dissolved in acetone and applied to the test units in a volume of 187 1/ha. Test materials were applied at rates ranging from 15 g ai/ha to 1000 g ai/ha using a track sprayer equipped with a TJ8001E even flow flat fan spray nozzle. Plants were arranged on a shelf so that the top of the canopy (post-emerge) or top of the soil surface (pre-emerge) was 40-45 cm below the nozzle. Pressurized air was used to force the test solution through the nozzle as it was mechanically advanced (via electrically driven chain drive) over the top of all test plants/pots. This application simulates a typical commercial field herbicide application.
(§4) In the post-emerge test, a commercial non-ionic surfactant was also included (0.25% v/v) to enhance wetting of the leaf surfaces of target plants. Immediately after application, test units of the pre-emerge applications were watered at the soil surface to incorporate the test materials. Subsequently, these test units were bottom-watered. Post-emerge test units were always bottom-watered.
(§5) At 14 days after application of the test materials, phytotoxicity ratings were recorded. A rating scale of 0-100 was used as previously described in Research Methods in Weed Science, 2nd edition, B. Truelove, Ed., Southern Weed Science Society, Auburn University, Auburn, Ala., 1977. Briefly, “0” corresponds to no damage and “100” corresponds to complete death of all plants in the test unit. This scale was used both to determine efficacy against weed species and damage to crop species. Herbicide activity data for various compounds of this invention, which are shown by compound No. in Tables I-VI, are shown in Tables VIII-IX.

[2] = test system: ivyleaf morningglory (Ipomoea hederacea, IPOHE); assay: as above
From the text: as §1, §2, §3, §4, §5

[3] = test system: large crabgrass (Digitaria sanguinalis, DIGSA); assay: as above
From the text: as §1, §2, §3, §4, §5

[4] = test system: johnsongrass (Sorghum halepense, SORHA); assay: as above
From the text: as §1, §2, §3, §4, §5

[5] = test system: sicklepod (Cassia obtusifolia, CASOB); assay: as above
From the text: as §1, §2, §3, §4, §5

[6] = test system: common ragweed (Ambrosia artemisiifolia L., AMBEL); assay: as above
From the text: as §1, §2, §3, §4, §5

[7] = test system: velvetleaf (Abutilon theophrasti, ABUTH); assay: as above
From the text: as §1, §2, §3, §4, §5

[8] = test system: lambsquarters (Chenopodium album, CHEAL); assay: as above
From the text: as §1, §2, §3, §4, §5

[9] = test system: redroot pigweed (Amaranthus retroflexus, AMARE); assay: as above
From the text: as §1, §2, §3, §4, §5

[10] = test system: barnyardgrass (Echinochloa crus-galli, ECHCG); assay: as above
From the text: as §1, §2, §3, §4, §5

[11] = test system: field corn (Zea mays L., var. Dekalb 535, CORN); assay: Post-emerge greenhouse screening, crop safety / corn selectivity (phytotoxicity rating)
From the text: as §1, §2, §3, §4, §5

[12] = test system: soybean (Glycine max L., var. Pella 86, SOY); assay: Post-emerge greenhouse screening, crop safety (phytotoxicity rating)
From the text: as §1, §2, §3, §4, §5

[13] = test system: upland rice (Oryza sp., var.Tebonnet, RICE); assay: as above
From the text: as §1, §2, §3, §4, §5

[14] = test system: green foxtail (Setaria viridis, SETVI); assay: Post-emerge greenhouse herbicide activity screening, phytotoxicity rating
From the text: as §1, §2, §3, §4, §5

[15] = test system: ivyleaf morningglory (Ipomoea hederacea, IPOHE); assay: as above
From the text: as §1, §2, §3, §4, §5

[16] = test system: large crabgrass (Digitaria sanguinalis, DIGSA); assay: as above
From the text: as §1, §2, §3, §4, §5

[17] = test system: johnsongrass (Sorghum halepense, SORHA); assay: as above
From the text: as §1, §2, §3, §4, §5

[18] = test system: sicklepod (Cassia obtusifolia, CASOB); assay: as above
From the text: as §1, §2, §3, §4, §5

[19] = test system: common ragweed (Ambrosia artemisiifolia L., AMBEL); assay: as above
From the text: as §1, §2, §3, §4, §5

[20] = test system: velvetleaf (Abutilon theophrasti, ABUTH); assay: as above
From the text: as §1, §2, §3, §4, §5

[21] = test system: lambsquarters (Chenopodium album, CHEAL); assay: as above
From the text: as §1, §2, §3, §4, §5

[22] = test system: redroot pigweed (Amaranthus retroflexus, AMARE); assay: as above
From the text: as §1, §2, §3, §4, §5

[23] = test system: barnyardgrass (Echinochloa crus-galli, ECHCG); assay: as above
From the text: as §1, §2, §3, §4, §5

[24] = test system: soybean (Glycine max L., var. Pella 86, SOY); assay: Pre-emerge greenhouse screening, crop safety (phytotoxicity rating)
From the text: as §1, §2, §3, §4, §5

[25] = test system: field corn (Zea mays L., var. Dekalb 535, CORN); assay: as above
From the text: as §1, §2, §3, §4, §5

[26] = test system: upland rice (Oryza sp., var.Tebonnet, RICE); assay: as above
From the text: as §1, §2, §3, §4, §5

Structure (SMILES): Cn1c(=S)n(C)c(=O)n(-c2cc(Oc3ccccc3N)c(Cl)cc2F)c1=O [Compound 2-18]
- SETVI phytotoxicity rating (0-100 scale) ([1]; 125 g ai/ha): 60
- SETVI phytotoxicity rating (0-100 scale) ([1]; 250 g ai/ha): 95
- IPOHE phytotoxicity rating (0-100 scale) ([2]; 125 g ai/ha): 0
- IPOHE phytotoxicity rating (0-100 scale) ([2]; 250 g ai/ha): 10
- DIGSA phytotoxicity rating (0-100 scale) ([3]; 125 g ai/ha): 75
- DIGSA phytotoxicity rating (0-100 scale) ([3]; 250 g ai/ha): 80
- SORHA phytotoxicity rating (0-100 scale) ([4]; 125 g ai/ha): 35
- SORHA phytotoxicity rating (0-100 scale) ([4]; 250 g ai/ha): 75
- CASOB phytotoxicity rating (0-100 scale) ([5]; 125 g ai/ha): 20
- CASOB phytotoxicity rating (0-100 scale) ([5]; 250 g ai/ha): 35
- AMBEL phytotoxicity rating (0-100 scale) ([6]; 125 g ai/ha): 50
- AMBEL phytotoxicity rating (0-100 scale) ([6]; 250 g ai/ha): 55
- ABUTH phytotoxicity rating (0-100 scale) ([7]; 125 g ai/ha): 55
- ABUTH phytotoxicity rating (0-100 scale) ([7]; 250 g ai/ha): 60
- CHEAL phytotoxicity rating (0-100 scale) ([8]; 125 g ai/ha): 100
- CHEAL phytotoxicity rating (0-100 scale) ([8]; 250 g ai/ha): 100
- AMARE phytotoxicity rating (0-100 scale) ([9]; 125 g ai/ha): 99
- AMARE phytotoxicity rating (0-100 scale) ([9]; 250 g ai/ha): 100
- ECHCG phytotoxicity rating (0-100 scale) ([10]; 125 g ai/ha): 35
- ECHCG phytotoxicity rating (0-100 scale) ([10]; 250 g ai/ha): 60
- CORN crop damage, phytotoxicity rating (0-100 scale) ([11]; 125 g ai/ha): 0
- CORN crop damage, phytotoxicity rating (0-100 scale) ([11]; 250 g ai/ha): 0
- SOY crop damage, phytotoxicity rating (0-100 scale) ([12]; 125 g ai/ha): 0
- SOY crop damage, phytotoxicity rating (0-100 scale) ([12]; 250 g ai/ha): 0
- RICE crop damage, phytotoxicity rating (0-100 scale) ([13]; 125 g ai/ha): 0
- RICE crop damage, phytotoxicity rating (0-100 scale) ([13]; 250 g ai/ha): 0
- SETVI phytotoxicity rating (0-100 scale) ([14]; 125 g ai/ha): 50
- SETVI phytotoxicity rating (0-100 scale) ([14]; 250 g ai/ha): 50
- IPOHE phytotoxicity rating (0-100 scale) ([15]; 125 g ai/ha): 0
- IPOHE phytotoxicity rating (0-100 scale) ([15]; 250 g ai/ha): 0
- DIGSA phytotoxicity rating (0-100 scale) ([16]; 125 g ai/ha): 0
- DIGSA phytotoxicity rating (0-100 scale) ([16]; 250 g ai/ha): 0
- SORHA phytotoxicity rating (0-100 scale) ([17]; 125 g ai/ha): 0
- SORHA phytotoxicity rating (0-100 scale) ([17]; 250 g ai/ha): 0
- CASOB phytotoxicity rating (0-100 scale) ([18]; 125 g ai/ha): 0
- CASOB phytotoxicity rating (0-100 scale) ([18]; 250 g ai/ha): 0
- AMBEL phytotoxicity rating (0-100 scale) ([19]; 125 g ai/ha): 0
- AMBEL phytotoxicity rating (0-100 scale) ([19]; 250 g ai/ha): 0
- ABUTH phytotoxicity rating (0-100 scale) ([20]; 125 g ai/ha): 0
- ABUTH phytotoxicity rating (0-100 scale) ([20]; 250 g ai/ha): 40
- CHEAL phytotoxicity rating (0-100 scale) ([21]; 125 g ai/ha): 70
- CHEAL phytotoxicity rating (0-100 scale) ([21]; 250 g ai/ha): 70
- AMARE phytotoxicity rating (0-100 scale) ([22]; 125 g ai/ha): 80
- AMARE phytotoxicity rating (0-100 scale) ([22]; 250 g ai/ha): 80
- ECHCG phytotoxicity rating (0-100 scale) ([23]; 125 g ai/ha): 0
- ECHCG phytotoxicity rating (0-100 scale) ([23]; 250 g ai/ha): 35
- SOY crop damage, phytotoxicity rating (0-100 scale) ([24]; 125 g ai/ha): 0
- SOY crop damage, phytotoxicity rating (0-100 scale) ([24]; 250 g ai/ha): 0
- CORN crop damage, phytotoxicity rating (0-100 scale) ([25]; 125 g ai/ha): 0
- CORN crop damage, phytotoxicity rating (0-100 scale) ([25]; 250 g ai/ha): 5
- RICE crop damage, phytotoxicity rating (0-100 scale) ([26]; 125 g ai/ha): 0
- RICE crop damage, phytotoxicity rating (0-100 scale) ([26]; 250 g ai/ha): 0
